Assay results from ChEMBL document CHEMBL1212758 (Antimicrob Agents Chemother, 2010).

What was measured:
[1] = tested on: Macacine alphaherpesvirus 1; experiment: Ratio of acyclovir EC50 to compound EC50 for Macacine herpesvirus 1 isolate MR4 infected in african green monkey Vero cells; assay type: functional
[2] = tested on: Macacine alphaherpesvirus 1; experiment: Ratio of acyclovir EC50 to compound EC50 for Macacine herpesvirus 1 isolate MR2 infected in african green monkey Vero cells; assay type: functional
[3] = tested on: Macacine alphaherpesvirus 1; experiment: Ratio of acyclovir EC50 to compound EC50 for Macacine herpesvirus 1 isolate MR8 infected in african green monkey Vero cells; assay type: functional
[4] = tested on: Macacine alphaherpesvirus 1; experiment: Ratio of acyclovir EC50 to compound EC50 for Macacine herpesvirus 1 isolate MR6 infected in african green monkey Vero cells; assay type: functional
[5] = tested on: Macacine alphaherpesvirus 1; experiment: Ratio of acyclovir EC50 to compound EC50 for Macacine herpesvirus 1 isolate MC1 infected in african green monkey Vero cells; assay type: functional
[6] = tested on: Macacine alphaherpesvirus 1; experiment: Ratio of acyclovir EC50 to compound EC50 for Macacine herpesvirus 1 isolate A3 infected in african green monkey Vero cells; assay type: functional
[7] = tested on: Macacine alphaherpesvirus 1; experiment: Ratio of acyclovir EC50 to compound EC50 for Macacine herpesvirus 1 isolate A2 infected in african green monkey Vero cells; assay type: functional
[8] = tested on: Macacine alphaherpesvirus 1; experiment: Ratio of acyclovir EC50 to compound EC50 for Macacine herpesvirus 1 isolate A6 infected in african green monkey Vero cells; assay type: functional
[9] = tested on: Macacine alphaherpesvirus 1; experiment: Ratio of acyclovir EC50 to compound EC50 for Macacine herpesvirus 1 isolate MJ3 infected in african green monkey Vero cells; assay type: functional
Human alphaherpesvirus 2 [10] = experiment: Ratio of acyclovir EC50 to compound EC50 for HSV 2 infected in african green monkey Vero cells; assay type: functional
[11] = tested on: Macacine alphaherpesvirus 1; experiment: Ratio of acyclovir EC50 to compound EC50 for Macacine herpesvirus 1 isolate MJ2 infected in african green monkey Vero cells; assay type: functional
[12] = tested on: Macacine alphaherpesvirus 1; experiment: Ratio of acyclovir EC50 to compound EC50 for Macacine herpesvirus 1 isolate A5 infected in african green monkey Vero cells; assay type: functional
[13] = tested on: Macacine alphaherpesvirus 1; experiment: Ratio of acyclovir EC50 to compound EC50 for Macacine herpesvirus 1 isolate MR9 infected in african green monkey Vero cells; assay type: functional
[14] = tested on: Macacine alphaherpesvirus 1; experiment: Ratio of acyclovir EC50 to compound EC50 for Macacine herpesvirus 1 isolate MR11 infected in african green monkey Vero cells; assay type: functional
[15] = tested on: Macacine alphaherpesvirus 1; experiment: Ratio of acyclovir EC50 to compound EC50 for Macacine herpesvirus 1 isolate A4 infected in african green monkey Vero cells; assay type: functional
[16] = tested on: Macacine alphaherpesvirus 1; experiment: Ratio of acyclovir EC50 to compound EC50 for Macacine herpesvirus 1 isolate E2490 infected in african green monkey Vero cells; assay type: functional
[17] = tested on: Macacine alphaherpesvirus 1; experiment: Ratio of acyclovir EC50 to compound EC50 for Macacine herpesvirus 1 isolate MR7 infected in african green monkey Vero cells; assay type: functional
[18] = tested on: Macacine alphaherpesvirus 1; experiment: Ratio of acyclovir EC50 to compound EC50 for Macacine herpesvirus 1 isolate MR3 infected in african green monkey Vero cells; assay type: functional
[19] = tested on: Macacine alphaherpesvirus 1; experiment: Ratio of acyclovir EC50 to compound EC50 for Macacine herpesvirus 1 isolate MP1 infected in african green monkey Vero cells; assay type: functional
[20] = tested on: Macacine alphaherpesvirus 1; experiment: Ratio of acyclovir EC50 to compound EC50 for Macacine herpesvirus 1 isolate MR5 infected in african green monkey Vero cells; assay type: functional
[21] = tested on: Macacine alphaherpesvirus 1; experiment: Ratio of acyclovir EC50 to compound EC50 for Macacine herpesvirus 1 isolate MC2 infected in african green monkey Vero cells; assay type: functional
[22] = tested on: Macacine alphaherpesvirus 1; experiment: Ratio of acyclovir EC50 to compound EC50 for Macacine herpesvirus 1 isolate A1 infected in african green monkey Vero cells; assay type: functional
[23] = tested on: Macacine alphaherpesvirus 1; experiment: Ratio of acyclovir EC50 to compound EC50 for Macacine herpesvirus 1 isolate MJ1 infected in african green monkey Vero cells; assay type: functional
[24] = tested on: Macacine alphaherpesvirus 1; experiment: Ratio of acyclovir EC50 to compound EC50 for Macacine herpesvirus 1 isolate MR1 infected in african green monkey Vero cells; assay type: functional
[25] = tested on: Macacine alphaherpesvirus 1; experiment: Ratio of acyclovir EC50 to compound EC50 for Macacine herpesvirus 1 isolate MR10 infected in african green monkey Vero cells; assay type: functional
Human alphaherpesvirus 1 [26] = experiment: Ratio of acyclovir EC50 to compound EC50 for HSV1 infected in african green monkey Vero cells; assay type: functional
Human alphaherpesvirus 2 [27] = experiment: Antiviral activity against HSV2 infected in african green monkey Vero cells by plaque reduction assay; assay type: functional, organism-based; conditions: Human alphaherpesvirus 2, Vero
Human alphaherpesvirus 1 [28] = experiment: Antiviral activity against HSV1 infected in african green monkey Vero cells by plaque reduction assay; assay type: functional, organism-based; conditions: Human alphaherpesvirus 1, Vero
[29] = tested on: Macacine alphaherpesvirus 1; experiment: Antiviral activity against Macacine herpesvirus 1 infected in rabbits assessed as survival after 5 months; assay type: functional
[30] = tested on: Macacine alphaherpesvirus 1; experiment: Antiviral activity against Macacine herpesvirus 1 isolate MC1 infected in african green monkey Vero cells by plaque reduction assay; assay type: functional, organism-based; conditions: Macacine alphaherpesvirus 1, isolate MC1, Vero
[31] = tested on: Macacine alphaherpesvirus 1; experiment: Antiviral activity against Macacine herpesvirus 1 isolate MR6 infected in african green monkey Vero cells by plaque reduction assay; assay type: functional, organism-based; conditions: Macacine alphaherpesvirus 1, isolate MR6, Vero
[32] = tested on: Macacine alphaherpesvirus 1; experiment: Antiviral activity against Macacine herpesvirus 1 isolate MC2 infected in african green monkey Vero cells by plaque reduction assay; assay type: functional, organism-based; conditions: Macacine alphaherpesvirus 1, isolate MC2, Vero
[33] = tested on: Macacine alphaherpesvirus 1; experiment: Antiviral activity against Macacine herpesvirus 1 isolate A1 infected in african green monkey Vero cells by plaque reduction assay; assay type: functional, organism-based; conditions: Macacine alphaherpesvirus 1, isolate A1, Vero
[34] = tested on: Macacine alphaherpesvirus 1; experiment: Antiviral activity against Macacine herpesvirus 1 isolate A4 infected in african green monkey Vero cells by plaque reduction assay; assay type: functional, organism-based; conditions: Macacine alphaherpesvirus 1, isolate A4, Vero
[35] = tested on: Macacine alphaherpesvirus 1; experiment: Antiviral activity against Macacine herpesvirus 1 isolate MJ1 infected in african green monkey Vero cells by plaque reduction assay; assay type: functional, organism-based; conditions: Macacine alphaherpesvirus 1, isolate MJ1, Vero
[36] = tested on: Macacine alphaherpesvirus 1; experiment: Antiviral activity against Macacine herpesvirus 1 isolate MP1 infected in african green monkey Vero cells by plaque reduction assay; assay type: functional, organism-based; conditions: Macacine alphaherpesvirus 1, isolate MP1, Vero
[37] = tested on: Macacine alphaherpesvirus 1; experiment: Antiviral activity against Macacine herpesvirus 1 isolate A6 infected in african green monkey Vero cells by plaque reduction assay; assay type: functional, organism-based; conditions: Macacine alphaherpesvirus 1, isolate A6, Vero
[38] = tested on: Macacine alphaherpesvirus 1; experiment: Antiviral activity against Macacine herpesvirus 1 isolate MR2 infected in african green monkey Vero cells by plaque reduction assay; assay type: functional, organism-based; conditions: Macacine alphaherpesvirus 1, isolate MR2, Vero
[39] = tested on: Macacine alphaherpesvirus 1; experiment: Antiviral activity against Macacine herpesvirus 1 isolate A3 infected in african green monkey Vero cells by plaque reduction assay; assay type: functional, organism-based; conditions: Macacine alphaherpesvirus 1, isolate A3, Vero
[40] = tested on: Macacine alphaherpesvirus 1; experiment: Antiviral activity against Macacine herpesvirus 1 isolate MR8 infected in african green monkey Vero cells by plaque reduction assay; assay type: functional, organism-based; conditions: Macacine alphaherpesvirus 1, isolate MR8, Vero
[41] = tested on: Macacine alphaherpesvirus 1; experiment: Antiviral activity against Macacine herpesvirus 1 isolate MJ2 infected in african green monkey Vero cells by plaque reduction assay; assay type: functional, organism-based; conditions: Macacine alphaherpesvirus 1, isolate MJ2, Vero
[42] = tested on: Macacine alphaherpesvirus 1; experiment: Antiviral activity against Macacine herpesvirus 1 isolate MR11 infected in african green monkey Vero cells by plaque reduction assay; assay type: functional, organism-based; conditions: Macacine alphaherpesvirus 1, isolate MR11, Vero
[43] = tested on: Macacine alphaherpesvirus 1; experiment: Antiviral activity against Macacine herpesvirus 1 isolate MR1 infected in african green monkey Vero cells by plaque reduction assay; assay type: functional, organism-based; conditions: Macacine alphaherpesvirus 1, isolate MR1, Vero
[44] = tested on: Macacine alphaherpesvirus 1; experiment: Antiviral activity against Macacine herpesvirus 1 isolate MR4 infected in african green monkey Vero cells by plaque reduction assay; assay type: functional, organism-based; conditions: Macacine alphaherpesvirus 1, isolate MR4, Vero
[45] = tested on: Macacine alphaherpesvirus 1; experiment: Antiviral activity against Macacine herpesvirus 1 isolate A2 infected in african green monkey Vero cells by plaque reduction assay; assay type: functional, organism-based; conditions: Macacine alphaherpesvirus 1, isolate A2, Vero
[46] = tested on: Macacine alphaherpesvirus 1; experiment: Antiviral activity against Macacine herpesvirus 1 isolate MR7 infected in african green monkey Vero cells by plaque reduction assay; assay type: functional, organism-based; conditions: Macacine alphaherpesvirus 1, isolate MR7, Vero
[47] = tested on: Macacine alphaherpesvirus 1; experiment: Antiviral activity against Macacine herpesvirus 1 isolate MR10 infected in african green monkey Vero cells by plaque reduction assay; assay type: functional, organism-based; conditions: Macacine alphaherpesvirus 1, isolate MR10, Vero
[48] = tested on: Macacine alphaherpesvirus 1; experiment: Antiviral activity against Macacine herpesvirus 1 isolate MJ3 infected in african green monkey Vero cells by plaque reduction assay; assay type: functional, organism-based; conditions: Macacine alphaherpesvirus 1, isolate MJ3, Vero
[49] = tested on: Macacine alphaherpesvirus 1; experiment: Antiviral activity against Macacine herpesvirus 1 isolate E2490 infected in african green monkey Vero cells by plaque reduction assay; assay type: functional, organism-based; conditions: Macacine alphaherpesvirus 1, isolate E2490, Vero
[50] = tested on: Macacine alphaherpesvirus 1; experiment: Antiviral activity against Macacine herpesvirus 1 isolate MR3 infected in african green monkey Vero cells by plaque reduction assay; assay type: functional, organism-based; conditions: Macacine alphaherpesvirus 1, isolate MR3, Vero
[51] = tested on: Macacine alphaherpesvirus 1; experiment: Antiviral activity against Macacine herpesvirus 1 isolate MR9 infected in african green monkey Vero cells by plaque reduction assay; assay type: functional, organism-based; conditions: Macacine alphaherpesvirus 1, isolate MR9, Vero
[52] = tested on: Macacine alphaherpesvirus 1; experiment: Antiviral activity against Macacine herpesvirus 1 isolate A5 infected in african green monkey Vero cells by plaque reduction assay; assay type: functional, organism-based; conditions: Macacine alphaherpesvirus 1, isolate A5, Vero
[53] = tested on: Macacine alphaherpesvirus 1; experiment: Antiviral activity against Macacine herpesvirus 1 isolate MR5 infected in african green monkey Vero cells by plaque reduction assay; assay type: functional, organism-based; conditions: Macacine alphaherpesvirus 1, isolate MR5, Vero

Cc1cn([C@@H]2O[C@H](CO)[C@@H](O)[C@@H]2F)c(=O)nc1N
Ratio EC50 [1]: 10
Ratio EC50 [2]: 10
Ratio EC50 [3]: 10
Ratio EC50 [4]: 10
Ratio EC50 [5]: 10
Ratio EC50 [6]: 10
Ratio EC50 [7]: 10
Ratio EC50 [8]: 10
Ratio EC50 [9]: 10
Ratio EC50 (Human alphaherpesvirus 2 [10]): 10
Ratio EC50 [11]: 10
Ratio EC50 [12]: 10
Ratio EC50 [13]: 10
Ratio EC50 [14]: 10
Ratio EC50 [15]: 10
Ratio EC50 [16]: 10
Ratio EC50 [17]: 10
Ratio EC50 [18]: 10
Ratio EC50 [19]: 10
Ratio EC50 [20]: 10
Ratio EC50 [21]: 10
Ratio EC50 [22]: 10
Ratio EC50 [23]: 10
Ratio EC50 [24]: 10
Ratio EC50 [25]: 10
Ratio EC50 (Human alphaherpesvirus 1 [26]): 10

Cc1cn([C@H]2O[C@@H](CO)[C@H](O)[C@H]2F)c(=O)[nH]c1=O [CLEVUDINE]
Ratio EC50 [1]: 100
Ratio EC50 [2]: 100
Ratio EC50 [3]: 100
Ratio EC50 [4]: 100
Ratio EC50 [5]: 100
Ratio EC50 [6]: 100
Ratio EC50 [7]: 100
Ratio EC50 [8]: 100
Ratio EC50 [9]: 100
Ratio EC50 (Human alphaherpesvirus 2 [10]): 100
Ratio EC50 [11]: 100
Ratio EC50 [12]: 100
Ratio EC50 [13]: 100
Ratio EC50 [14]: 100
Ratio EC50 [15]: 100
Ratio EC50 [16]: 100
Ratio EC50 [17]: 100
Ratio EC50 [18]: 100
Ratio EC50 [19]: 100
Ratio EC50 [20]: 100
Ratio EC50 [21]: 100
Ratio EC50 [22]: 100
Ratio EC50 [23]: 100
Ratio EC50 [24]: 100
Ratio EC50 [25]: 100
Ratio EC50 (Human alphaherpesvirus 1 [26]): 100

Nc1nc2c(ncn2COC(CO)CO)c(=O)[nH]1 [GANCICLOVIR]
EC50 (Human alphaherpesvirus 2 [27]): 19.3 µM
EC50 (Human alphaherpesvirus 1 [28]): 19.3 µM
Activity [29]: 100%
EC50 [30]: 19.3 µM

Nc1nc2c(ncn2COCCO)c(=O)[nH]1 [ACYCLOVIR]
EC50 [31]: 19.3 µM
EC50 [32]: 19.3 µM
EC50 [33]: 19.3 µM
EC50 [34]: 19.3 µM
EC50 [35]: 19.3 µM
EC50 [36]: 19.3 µM
EC50 [37]: 19.3 µM
EC50 [38]: 19.3 µM
EC50 [39]: 19.3 µM
EC50 [40]: 19.3 µM
EC50 [41]: 19.3 µM
EC50 [42]: 19.3 µM
EC50 (Human alphaherpesvirus 2 [27]): 19.3 µM
EC50 [43]: 19.3 µM
EC50 [44]: 19.3 µM
EC50 [45]: 19.3 µM
EC50 [46]: 19.3 µM
EC50 [47]: 19.3 µM
EC50 [48]: 19.3 µM
EC50 [49]: 19.3 µM
EC50 (Human alphaherpesvirus 1 [28]): 19.3 µM
Activity [29]: 33%
EC50 [50]: 19.3 µM
EC50 [30]: 19.3 µM
EC50 [51]: 19.3 µM
EC50 [52]: 19.3 µM
EC50 [53]: 19.3 µM
